Legend:
[1] = tested on: chronic Hepatitis C genotype 1 infection; test: Study NV21075 Phase 2 clinical study, virological response (undetectable HCV RNA) during the first 12 weeks of treatment; assay type: in vivo, human patients; settings: for percentage of patients with undetectable HCV RNA levels at the end of 12 weeks of treatment: limit of detection 15 IU/mL, preliminary interim analysis
Text: Study NV21075 was a randomized double-blinded multicenter Phase 2 clinical study to evaluate the efficacy and safety of danoprevir in combination with peginterferon alfa 2a and ribavirin (triple therapy combination) when dosed for twelve weeks in treatment-naïve patients with chronic Hepatitis C genotype 1 infection as compared to the currently approved combination of peginterferon alfa 2a and ribavirin (Standard of Care or SOC). Patients enrolled in Study NV21075 were randomized into one of four treatment groups (FIG. 1) (approximately 60 patients for Groups A-C, approximately 30 patients for Group D). In the response-guided treatment groups (as described below), patients with an extended RVR (eRVR, defined as undetectable HCV RNA from […]) stopped all therapy at Week 24.
Patients received double blinded experimental treatment with danoprevir at 300 mg TID (Group A), 600 mg BID (Group B), or 900 mg BID (Group C) and standard of care treatment (SOC, Pegasys 180 μg sc qw+Copegus 1000 mg (<75 kg) or 1200 mg (≧75 kg) po qd) for 12 weeks, followed by SOC for 12 weeks. Patients who achieve an RVR, defined as undetectable HCV RNA at week 4, and remain undetectable through week 22 (i.e. achieving eRVR) stopped all treatment at week 24. […] Treatment Group D: Patients received double blinded placebo treatment for 12 weeks, followed by SOC for 36 weeks for a total duration of 48 weeks.
For the interim analysis of NV21075, efficacy during the first 12 weeks of treatment was measured by the percentage of patients with virological response (undetectable HCV RNA as measured by the Roche Cobas® AmpliPrep/Cobas® Taqman® HCV Test v1.0 [limit of detection 15 IU/mL]). Patients were considered non-responders at a scheduled visit if they had missing data, which may have been due to an assessment that was missed or fell outside of the allowable window for that visit, or an early withdrawal from treatment with a missing follow-up assessment.

[2] = tested on: HCV; settings: RBV monotherapy; cited from earlier work

Row | SMILES | percentage of patients with undetectable HCV RNA levels at the end of 12 weeks of treatment ([1]; Treatment Group A: danoprevir 300 mg TID plus SOC) | percentage of patients with undetectable HCV RNA levels at the end of 12 weeks of treatment ([1]; Treatment Group B: danoprevir 600 mg BID plus SOC) | percentage of patients with undetectable HCV RNA levels at the end of 12 weeks of treatment ([1]; Treatment Group C: danoprevir 900 mg BID plus SOC) | change in mean HCV RNA levels ([1]; danoprevir plus SOC, within the first 2 to 4 weeks of treatment, remained lower than SOC up to Week 12) | effect on the replication of HCV [2]
1 | CC(C)(C)OC(=O)N[C@H]1CCCCC/C=C\[C@@H]2C[C@@]2(C(=O)NS(=O)(=O)C2CC2)NC(=O)[C@@H]2C[C@@H](OC(=O)N3Cc4cccc(F)c4C3)CN2C1=O [Danoprevir, 4-Fluoro-1,3-dihydro-isoindole-2-carboxylic acid (Z)-(1S,4R,6S,14S,18R)-14-tert-butoxycarbonylamino-4-cyclopropanesulfonylaminocarbonyl-2,15-dioxo-3,16-diaza-tricyclo[14.3.0.0*4,6*]nonadec-7-en-18-yl ester] | 88.1% | 89.2% | 92.0% | precipitous decline | 
2 | NC(=O)c1ncn([C@@H]2O[C@H](CO)[C@@H](O)[C@H]2O)n1 [ribavirin, 1-((2R,3R,4S,5R)-3,4-Dihydroxy-5-hydroxymethyl-tetrahydro-furan-2-yl)-1H-[1,2,4]triazole-3-carboxylic acid amide] |  |  |  |  | little or no effect

Reference: patent US20130137084A1, “Single Nucleotide Polymorphism on Chromosome 15 That Predicts HCV Treatment Responses” (Roche Molecular Systems, Inc., priority 2011, published 2013)
